Results: patent US20230013669A1, “Antibacterial Treatment Using a Cannabinoid and an Active Agent” (priority 2019, published 2023)
Values joined by “and” are separate entries in the source; they are usually repeats but may differ in a detail not shown here. Equal entries are not always repeated. Where two headings read alike, the source gives them in different places.

System: Acinetobacter baumannii ATCC 19606 (GN_034)
Test: Synergy of cannabidiol with cell-wall disrupting agent (CBD MIC in combination, FICI)
Format: cell-based
Settings: for MIC: Acinetobacter baumannii
Protocol: The compounds were stored short term at 4° C.
Analysis was performed using Microsoft Excel.

**Q.** `C=C(C)C1CCC(C)=CC1c1c(O)cc(CCCCC)cc1O` (centres unmarked) [Cannabidiol, 2-[3-methyl-6-(1-methylethenyl)-2-cyclohexen-1-yl]-5-pentyl-1,3-benzenediol] was tested. Which FICI range (Acinetobacter baumannii ATCC 19606, CBD with FADDI-287, MIC table (Table 95)) did it give?
**A.** 0.25-8

**Q.** And the FICI range (Acinetobacter baumannii ATCC 19606, CBD with FADDI-287, Synergy table (Table 97))?
**A.** 0.25-8^

**Q.** And the FICI range (Acinetobacter baumannii ATCC 19606, CBD with MCC_8980, MIC table (Table 99))?
**A.** 0.06-1.02

**Q.** And the FICI range (Acinetobacter baumannii ATCC 19606, CBD with MCC_8980, Synergy table (Table 101), listed as CBD)?
**A.** 0.06-0.25 and 0.06-0.26

**Q.** What about the FICI range (Acinetobacter baumannii ATCC 19606, CBD with Spero SPR206, Synergy table, listed as CBD) of the same compound?
**A.** 0.25-0.5 and 0.25

**Q.** What about the “CBD MIC with MCC_8980” value (Acinetobacter baumannii ATCC 19606, MCC_8980 at 8 μg/mL, listed as CBD) of the same compound?
**A.** 4 µg/mL

**Q.** And the “CBD MIC with MCC_8980” value (Acinetobacter baumannii ATCC 19606, MCC_8980 at 16 μg/mL, listed as CBD)?
**A.** 2 µg/mL

**Q.** And the FICI (Acinetobacter baumannii ATCC 19606, cannabidiol with FADDI-287 at 0.25 μg/mL, calculated using MIC of 256 μg/mL for cannabidiol)?
**A.** 0.5001

**Q.** What about the FICI (Acinetobacter baumannii ATCC 19606, cannabidiol with FADDI-287 at 0.5 μg/mL, calculated using MIC of 256 μg/mL for cannabidiol) of the same compound?
**A.** 1

**Q.** And the FICI (Acinetobacter baumannii ATCC 19606, cannabidiol with FADDI-287 at 1 μg/mL, calculated using MIC of 256 μg/mL for cannabidiol)?
**A.** 2

**Q.** And the FICI (Acinetobacter baumannii ATCC 19606, cannabidiol with FADDI-287 at 2 μg/mL, calculated using MIC of 256 μg/mL for cannabidiol)?
**A.** 4

**Q.** And the FICI (Acinetobacter baumannii ATCC 19606, cannabidiol with FADDI-287 at 4 μg/mL, calculated using MIC of 256 μg/mL for cannabidiol)?
**A.** 8

**Q.** What about the FICI (Acinetobacter baumannii ATCC 19606, cannabidiol with MCC_8980 at 1 μg/mL, calculated using MIC of 256 μg/mL for cannabidiol) of the same compound?
**A.** 1.016

**Q.** What about the FICI (Acinetobacter baumannii ATCC 19606, cannabidiol with MCC_8980 at 2 μg/mL, calculated using MIC of 256 μg/mL for cannabidiol) of the same compound?
**A.** 0.0625

**Q.** What about the FICI (Acinetobacter baumannii ATCC 19606, cannabidiol with MCC_8980 at 4 μg/mL, calculated using MIC of 256 μg/mL for cannabidiol) of the same compound?
**A.** 0.09375

**Q.** And the FICI (Acinetobacter baumannii ATCC 19606, cannabidiol with MCC_8980 at 8 μg/mL, calculated using MIC of 256 μg/mL for cannabidiol)?
**A.** 0.1328 and 0.1406

**Q.** What about the FICI (Acinetobacter baumannii ATCC 19606, cannabidiol with MCC_8980 at 16 μg/mL, calculated using MIC of 256 μg/mL for cannabidiol) of the same compound?
**A.** 0.2578

**Q.** What about the FICI (Acinetobacter baumannii ATCC 19606, cannabidiol with SPR741 at 1 μg/mL, calculated using MIC of 256 μg/mL for cannabidiol) of the same compound?
**A.** 1.016

**Q.** What about the FICI (Acinetobacter baumannii ATCC 19606, cannabidiol with SPR741 at 2 μg/mL, calculated using MIC of 256 μg/mL for cannabidiol) of the same compound?
**A.** 1.031

**Q.** And the FICI (Acinetobacter baumannii ATCC 19606, cannabidiol with SPR741 at 2 μg/mL, calculated using MIC of 256 μg/mL for cannabidiol, listed as cannabidiol)?
**A.** 1.016

**Q.** And the MIC (ATCC19606, Acinetobacter baumannii ATCC 19606, FADDI-287 at 0.25 μg/mL, read-out: CBD MIC with FADDI-287)?
**A.** 0.015 µg/mL

**Q.** And the MIC (ATCC19606, Acinetobacter baumannii ATCC 19606, FADDI-287 at 0.5 μg/mL, read-out: CBD MIC with FADDI-287)?
**A.** 0.001 µg/mL

**Q.** And the MIC (ATCC19606, Acinetobacter baumannii ATCC 19606, FADDI-287 at 1 μg/mL, read-out: CBD MIC with FADDI-287)?
**A.** 0.001 µg/mL

**Q.** And the MIC (ATCC19606, Acinetobacter baumannii ATCC 19606, FADDI-287 at 2 μg/mL, read-out: CBD MIC with FADDI-287)?
**A.** 0.001 µg/mL

**Q.** And the MIC (ATCC19606, Acinetobacter baumannii ATCC 19606, FADDI-287 at 4 μg/mL, read-out: CBD MIC with FADDI-287)?
**A.** 0.001 µg/mL

**Q.** What about the MIC (ATCC19606, Acinetobacter baumannii ATCC 19606, MCC_8980 at 2 μg/mL, read-out: CBD MIC with MCC_8980) of the same compound?
**A.** 8 µg/mL

**Q.** What about the MIC (ATCC19606, Acinetobacter baumannii ATCC 19606, MCC_8980 at 4 μg/mL, read-out: CBD MIC with MCC_8980) of the same compound?
**A.** 8 µg/mL

**Q.** And the MIC (ATCC19606, Acinetobacter baumannii ATCC 19606, MCC_8980 at 8 μg/mL, read-out: CBD MIC with MCC_8980)?
**A.** 2 µg/mL

**Q.** And the MIC (ATCC19606, Acinetobacter baumannii ATCC 19606, MCC_8980 at 16 μg/mL, read-out: CBD MIC with MCC_8980)?
**A.** 1 µg/mL

**Q.** What about the MIC (ATCC19606, Acinetobacter baumannii ATCC 19606, Spero SPR206 at 2 μg/mL, read-out: CBD MIC with Spero SPR206) of the same compound?
**A.** 0.001 µg/mL

**Q.** What about the MIC (ATCC19606, Acinetobacter baumannii ATCC 19606, Spero SPR206 at 4 μg/mL, read-out: CBD MIC with Spero SPR206) of the same compound?
**A.** 0.001 µg/mL

**Q.** And the MIC (ATCC19606, MCC_6442 at 1 μg/mL, Acinetobacter baumannii ATCC 19606, read-out: CBD MIC with MCC_6442)?
**A.** 16 µg/mL

**Q.** What about the MIC (ATCC19606, MCC_6442 at 2 μg/mL, Acinetobacter baumannii ATCC 19606, read-out: CBD MIC with MCC_6442) of the same compound?
**A.** 1 µg/mL

**Q.** And the MIC (ATCC19606, MCC_6442 at 4 μg/mL, Acinetobacter baumannii ATCC 19606, read-out: CBD MIC with MCC_6442)?
**A.** 0.5 µg/mL

**Q.** What about the MIC (ATCC19606, Octapeptin C4 at 2 μg/mL, read-out: CBD MIC with Octapeptin C4) of the same compound?
**A.** 8 µg/mL

**Q.** And the MIC (ATCC19606, Octapeptin C4 at 4 μg/mL, read-out: CBD MIC with Octapeptin C4)?
**A.** 2 µg/mL

**Q.** And the MIC (ATCC19606, Spero SPR206 at 0.25 μg/mL, 1st of 3 experiments, read-out: CBD MIC with Spero SPR206)?
**A.** 0.001 µg/mL

**Q.** What about the MIC (ATCC19606, Spero SPR206 at 0.25 μg/mL, 3rd of 3 experiments, read-out: CBD MIC with Spero SPR206) of the same compound?
**A.** > 256 µg/mL

**Q.** What about the MIC (ATCC19606, Spero SPR206 at 0.5 μg/mL, 1st of 3 experiments, read-out: CBD MIC with Spero SPR206) of the same compound?
**A.** 0.001 µg/mL

**Q.** And the MIC (ATCC19606, Spero SPR206 at 0.5 μg/mL, 3rd of 3 experiments, read-out: CBD MIC with Spero SPR206)?
**A.** > 256 µg/mL

**Q.** And the MIC (ATCC19606, Spero SPR206 at 1 μg/mL, 1st of 3 experiments, read-out: CBD MIC with Spero SPR206)?
**A.** 0.001 µg/mL

**Q.** And the MIC (ATCC19606, Spero SPR206 at 1 μg/mL, 3rd of 3 experiments, read-out: CBD MIC with Spero SPR206)?
**A.** 1 µg/mL

**Q.** And the MIC (ATCC19606, Spero SPR206 at 2 μg/mL, 1st of 3 experiments, read-out: CBD MIC with Spero SPR206)?
**A.** 0.001 µg/mL

**Q.** And the MIC (ATCC19606, Spero SPR206 at 2 μg/mL, 3rd of 3 experiments, read-out: CBD MIC with Spero SPR206)?
**A.** 0.001 µg/mL

**Q.** And the MIC (ATCC19606, Spero SPR206 at 4 μg/mL, 1st of 3 experiments, read-out: CBD MIC with Spero SPR206)?
**A.** 0.001 µg/mL

**Q.** What about the MIC (ATCC19606, Spero SPR206 at 4 μg/mL, 3rd of 3 experiments, read-out: CBD MIC with Spero SPR206) of the same compound?
**A.** 0.001 µg/mL

**Q.** And the “CBD MIC with Aztreonam” value (Aztreonam at 4 μg/mL)?
**A.** 32 µg/mL

**Q.** What about the “CBD MIC with Aztreonam” value (Aztreonam at 8 μg/mL) of the same compound?
**A.** 32 µg/mL

**Q.** And the “CBD MIC with Aztreonam” value (Aztreonam at 16 μg/mL)?
**A.** 0.001 µg/mL

**Q.** And the FICI (CBD with Aztreonam at 0.5 μg/mL, CBD MIC taken as 256 μg/mL)?
**A.** 1.016

**Q.** And the FICI (CBD with Aztreonam at 1 μg/mL, CBD MIC taken as 256 μg/mL)?
**A.** 1.031

**Q.** And the FICI (CBD with Aztreonam at 2 μg/mL, CBD MIC taken as 256 μg/mL)?
**A.** 1.0625

**Q.** What about the FICI (CBD with Aztreonam at 4 μg/mL, CBD MIC taken as 256 μg/mL) of the same compound?
**A.** 0.25
